How the values were obtained:
Format in all cases: cell-based, mouse
[1] = test system: α7 integrin (LacZ reporter in α7βgal+/− myoblasts); assay: Myoblast α7+/LacZ integrin FDG assay (Burkin assay in myoblasts, 96-well); conditions: for Burkin Assay in Myoblasts, value relative to DMSO: SU9516 analogs, N=3-6; for Burkin Assay in Myoblasts, value relative to DMSO / Burkin Assay in Myoblasts, signal relative to DMSO: 96-well; for Burkin Assay in Myoblasts, signal relative to DMSO: α7+/LacZ myoblasts
[2] = test system: α7 integrin (LacZ reporter in α7+/LacZ myotubes); assay: Myotube α7 integrin FDG assay (Burkin assay in myotubes, 96-well); conditions: for Burkin Assay in Myotubes, value relative to DMSO: SU9516 analogs, 96-well, N=3-6
[3] = test system: β-galactosidase in CMV-LacZ C2C12 myotubes; assay: CMV-LacZ secondary screen in C2C12 myotubes (β-Gal stabilizing assay); conditions: for CMV-LACZ in Myotubes, value relative to DMSO: SU9516 analogs, C2C12 CMV-LacZ, N=2; for CMV-LACZ in Myotubes, signal relative to DMSO: C2C12 CMV-LacZ myotubes, fold relative to DMSO
In short: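 CMV-LacZ C2C12 line (clonal, FDG-screened); myoblasts/myotubes dosed 0.5–40 μM (0.5, 1, 5, 10, 20, 40 μM); n=2 per point; β-gal stabilization read-out.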

[4] = test system: β-galactosidase in CMV-LacZ C2C12 myoblasts; assay: CMV-LacZ secondary screen in C2C12 myoblasts (β-Gal stabilizing assay); conditions: for CMV-LACZ in Myoblasts, value relative to DMSO: SU9516 analogs, C2C12 CMV-LacZ, N=2; for CMV-LACZ in Myoblasts (β-galactosidase activity relative to DMSO): CMV-LacZ C2C12 myoblasts
In short: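 First, C2C12 myoblasts were transfected with a linearized CMV-LACZ vector and clonal lines selected by FDG β-gal assay. Then cells were exposed to compounds at 0.5, 1, 5, 10, 20 and 40 μM in 96-well format, two replicates each, and β-gal measured.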

[5] = Mus musculus, Myoblast, 48 h, read-out: Burkin Assay in Myoblasts, value relative to DMSO

With O=C1Nc2ccccc2/C1=C/c1c[nH]cn1 [MLS000327715-01] the fold induction at 0.5 µM [1, 5] was 1.38, the fold induction at 1 µM [1, 5] was 1.09 and the fold induction at 5 µM [1, 5] was 1.15. For the same molecule, the fold induction at 10 µM [1, 5] was 1.03, the fold induction at 20 µM [1, 5] was 0.902 and the fold induction at 40 µM [1, 5] was 0.578. For the same molecule, the “Burkin Assay in Myotubes, value relative to DMSO” value ([2]; 0.5 uM) was 0.8838, the “Burkin Assay in Myotubes, value relative to DMSO” value ([2]; 1 uM) was 1.025 and the “Burkin Assay in Myotubes, value relative to DMSO” value ([2]; 5 uM) was 1.302. The “Burkin Assay in Myotubes, value relative to DMSO” value ([2]; 10 uM) was 1.115, the “Burkin Assay in Myotubes, value relative to DMSO” value ([2]; 20 uM) was 1.192 and the “Burkin Assay in Myotubes, value relative to DMSO” value ([2]; 40 uM) was 1.119. For the same molecule, the “CMV-LACZ in Myotubes, value relative to DMSO” value ([3]; 0.5 uM) was 1.1762, the “CMV-LACZ in Myotubes, value relative to DMSO” value ([3]; 1 uM) was 1.0562 and the “CMV-LACZ in Myotubes, value relative to DMSO” value ([3]; 5 uM) was 1.1289. The “CMV-LACZ in Myotubes, value relative to DMSO” value ([3]; 10 uM) was 0.9983, the “CMV-LACZ in Myotubes, value relative to DMSO” value ([3]; 20 uM) was 1.2200 and the “CMV-LACZ in Myotubes, value relative to DMSO” value ([3]; 40 uM) was 1.4871. For the same molecule, the “CMV-LACZ in Myoblasts, value relative to DMSO” value ([4]; 0.5 uM) was 1.2294, the “CMV-LACZ in Myoblasts, value relative to DMSO” value ([4]; 1 uM) was 1.1731 and the “CMV-LACZ in Myoblasts, value relative to DMSO” value ([4]; 5 uM) was 0.9664. The “CMV-LACZ in Myoblasts, value relative to DMSO” value ([4]; 10 uM) was 1.0060, the “CMV-LACZ in Myoblasts, value relative to DMSO” value ([4]; 20 uM) was 1.3181 and the “CMV-LACZ in Myoblasts, value relative to DMSO” value ([4]; 40 uM) was 1.0648.
With O=C1Nc2ccccc2/C1=C/c1cnc(-c2ccccc2)[nH]1 [MLS000834756-01] the “Burkin Assay in Myoblasts, value relative to DMSO” value ([1]; 0.5 uM) was 1.056, the “Burkin Assay in Myoblasts, value relative to DMSO” value ([1]; 1 uM) was 1.098 and the “Burkin Assay in Myoblasts, value relative to DMSO” value ([1]; 5 uM) was 1.227. For the same molecule, the “Burkin Assay in Myoblasts, value relative to DMSO” value ([1]; 10 uM) was 1.172, the “Burkin Assay in Myoblasts, value relative to DMSO” value ([1]; 20 uM) was 1.064 and the “Burkin Assay in Myoblasts, value relative to DMSO” value ([1]; 40 uM) was 1.081. For the same molecule, the “Burkin Assay in Myotubes, value relative to DMSO” value ([2]; 0.5 uM) was 1.079, the “Burkin Assay in Myotubes, value relative to DMSO” value ([2]; 1 uM) was 1.189 and the “Burkin Assay in Myotubes, value relative to DMSO” value ([2]; 5 uM) was 1.095. For the same molecule, the “Burkin Assay in Myotubes, value relative to DMSO” value ([2]; 10 uM) was 0.9214, the “Burkin Assay in Myotubes, value relative to DMSO” value ([2]; 20 uM) was 0.9495 and the “Burkin Assay in Myotubes, value relative to DMSO” value ([2]; 40 uM) was 0.9189. For the same molecule, the “CMV-LACZ in Myotubes, value relative to DMSO” value ([3]; 0.5 uM) was 0.9859, the “CMV-LACZ in Myotubes, value relative to DMSO” value ([3]; 1 uM) was 1.0059 and the “CMV-LACZ in Myotubes, value relative to DMSO” value ([3]; 5 uM) was 1.1994. For the same molecule, the “CMV-LACZ in Myotubes, value relative to DMSO” value ([3]; 10 uM) was 1.1713, the “CMV-LACZ in Myotubes, value relative to DMSO” value ([3]; 20 uM) was 2.0788 and the “CMV-LACZ in Myotubes, value relative to DMSO” value ([3]; 40 uM) was 2.2953. The “CMV-LACZ in Myoblasts, value relative to DMSO” value ([4]; 0.5 uM) was 0.8709, the “CMV-LACZ in Myoblasts, value relative to DMSO” value ([4]; 1 uM) was 1.0422 and the “CMV-LACZ in Myoblasts, value relative to DMSO” value ([4]; 5 uM) was 1.2652. For the same molecule, the “CMV-LACZ in Myoblasts, value relative to DMSO” value ([4]; 10 uM) was 1.0917, the “CMV-LACZ in Myoblasts, value relative to DMSO” value ([4]; 20 uM) was 0.8022 and the “CMV-LACZ in Myoblasts, value relative to DMSO” value ([4]; 40 uM) was 1.1889.
CCOC(=O)c1cc(-c2cccs2)nc2c1c(C)nn2-c1ccccn1 [MLS001006516-01] was tested, and the “Burkin Assay in Myoblasts, signal relative to DMSO” value ([1]; 0.5 uM) was 1.097, the “Burkin Assay in Myoblasts, signal relative to DMSO” value ([1]; 1 uM) was 1.134 and the “Burkin Assay in Myoblasts, signal relative to DMSO” value ([1]; 5 uM) was 0.8796. For the same molecule, the “Burkin Assay in Myoblasts, signal relative to DMSO” value ([1]; 10 uM) was 0.7932, the “Burkin Assay in Myoblasts, signal relative to DMSO” value ([1]; 20 uM) was 0.6928 and the “Burkin Assay in Myoblasts, signal relative to DMSO” value ([1]; 40 uM) was 0.4802. The “Burkin Assay in Myotubes, α7 integrin LacZ reporter signal relative to DMSO” value ([2]; 0.5 uM) was 0.9261, the “Burkin Assay in Myotubes, α7 integrin LacZ reporter signal relative to DMSO” value ([2]; 1 uM) was 0.8714 and the “Burkin Assay in Myotubes, α7 integrin LacZ reporter signal relative to DMSO” value ([2]; 5 uM) was 0.9257. For the same molecule, the “Burkin Assay in Myotubes, α7 integrin LacZ reporter signal relative to DMSO” value ([2]; 10 uM) was 0.9085, the “Burkin Assay in Myotubes, α7 integrin LacZ reporter signal relative to DMSO” value ([2]; 20 uM) was 0.7127 and the “Burkin Assay in Myotubes, α7 integrin LacZ reporter signal relative to DMSO” value ([2]; 40 uM) was 0.7127. The “CMV-LACZ in Myotubes, signal relative to DMSO” value ([3]; 0.5 uM) was 0.9581, the “CMV-LACZ in Myotubes, signal relative to DMSO” value ([3]; 1 uM) was 0.9257 and the “CMV-LACZ in Myotubes, signal relative to DMSO” value ([3]; 5 uM) was 0.9283. The “CMV-LACZ in Myotubes, signal relative to DMSO” value ([3]; 10 uM) was 0.8542, the “CMV-LACZ in Myotubes, signal relative to DMSO” value ([3]; 20 uM) was 0.9032 and the “CMV-LACZ in Myotubes, signal relative to DMSO” value ([3]; 40 uM) was 0.9484. For the same molecule, the “CMV-LACZ in Myoblasts (β-galactosidase activity relative to DMSO)” value ([4]; 0.5 uM) was 1.0038, the “CMV-LACZ in Myoblasts (β-galactosidase activity relative to DMSO)” value ([4]; 1 uM) was 0.8858 and the “CMV-LACZ in Myoblasts (β-galactosidase activity relative to DMSO)” value ([4]; 5 uM) was 0.9829. The “CMV-LACZ in Myoblasts (β-galactosidase activity relative to DMSO)” value ([4]; 10 uM) was 0.9076, the “CMV-LACZ in Myoblasts (β-galactosidase activity relative to DMSO)” value ([4]; 20 uM) was 0.4956 and the “CMV-LACZ in Myoblasts (β-galactosidase activity relative to DMSO)” value ([4]; 40 uM) was 0.6589.

— US9980943B2, “Methods of treating muscular dystrophy” (BOARD OF REGENTS OF THE NEVADA SYSTEM OF HIGHER EDUCATION, …, priority 2013, dated 2018)
